Data published in publication PMC5650409 (Oncotarget, 2017).

How the values were obtained:
[1] = tested on: SK-BR-3 tumor-bearing mice; assay: Small-animal PET imaging of SK-BR-3 xenografts; type: in vivo
Procedure: (§1) All animal experiments were performed in adherence with the Peking Union Medical College Hospital (PUMCH) guidelines for the use of laboratory animals and were approved by PUMCH Clinical Center Animal Care and Use Committee. The pancreatic cancer tumor-bearing models were generated by subcutaneous injection of 5 × 10^6 human T3M4 pancreatic cancer cells (kindly supplied by Prof. Taiping Zhang from the Department of General Surgery, Peking Union Medical College Hospital) and SK-BR-3 breast cancer cells (kindly supplied by Prof. Wei Ge from Department of Immunology, Institute of Basic Medical Sciences), into the right shoulder of female athymic nude mice (Laboratory Animal Center of PUMCH). Tumor sizes were monitored with a vernier caliper. When the tumor reached approximately 3-5 mm in diameter, T3M4 tumor-bearing mice were intramuscularly injected with 0.2 mL turpentine into the left hind leg muscle. After 72 h, those tumor-bearing mice with a visible mass in left thigh muscle, were selected and used as models with aseptic inflammation.
(§2) In vivo PET imaging was performed using a small-animal PET scanner Inveon (Siemens Medical systems, USA). […] Mice were anesthetized with isoflurane and placed on a heated pad (to provide the animal with warmth throughout the scanning). PET images were acquired at 30, 60, 90 and 120 min post-injection. After the acquisition, region of interests (ROIs), including tumor, muscle, brain and kidney were drawn over major organs on decay-corrected whole-body coronal images using Inveon Research Workplace 4.1 software. Radioactivity concentration of organs was obtained from the mean pixel values within the multiple ROI volume, and converted into MBq/mL using a conversion factor. Assuming the density of tissue was 1 g/cm^3, the ROIs were converted to MBq/g and then divided by the administered activity, to obtain an imaging ROI-derived %ID/g.

T3M4 tumor-bearing mice = assay: Small-animal PET imaging of T3M4 xenografts (with aseptic inflammation, with and without β-D-lactose blocking); type: in vivo; settings: for tumor uptake (PET ROI-derived): T3M4 tumor, 60 min post-injection
Procedure: as §1, §2

[2] = tested on: T3M4 tumor-bearing nude mice; assay: In vivo biodistribution; settings: n = 5
Procedure: All animal experiments were performed in adherence with the Peking Union Medical College Hospital (PUMCH) guidelines for the use of laboratory animals and were approved by PUMCH Clinical Center Animal Care and Use Committee. […] Zhang from the Department of General Surgery, Peking Union Medical College Hospital) and SK-BR-3 breast cancer cells (kindly supplied by Prof. Wei Ge from Department of Immunology, Institute of Basic Medical Sciences), into the right shoulder of female athymic nude mice (Laboratory Animal Center of PUMCH). Tumor sizes were monitored with a vernier caliper. […] After 72 h, those tumor-bearing mice with a visible mass in left thigh muscle, were selected and used as models with aseptic inflammation. […] At 5 min, 30 min, 60 min and 120 min after injection, mice were sacrificed by humane euthanasia - cervical dislocation. Blood was obtained through the eyeball, and tissues and organs of interests (brain, heart, lung, liver, pancreas, kidney, spleen, intestine, muscle, stomach, bone and tumor) were then weighed and counted. All measurements were background-subtracted and decay-corrected to the time of killing and then averaged. Radioactivity values were calculated and presented as the percentage injected dose per gram (%ID/g) of tissue.

[3] = Octanol-water partition coefficient determination; type: physicochemical; settings: n-octanol / PBS pH 7.4
Procedure: After vortexing for 10 min, the tube was centrifuged (8000 rpm, 3 min) for layer separation. An aliquot of the aqueous and n-octanol layers was collected and measured by a γ-counter.

[4] = In vitro stability in fetal bovine serum; type: in vitro ADME; settings: 37 °C, 120 min
[5] = Procedure: Urine and blood samples were collected at 15 min post-injection and blood was centrifuged (8000 rpm, 10 min) to separate out the plasma. Urine and plasma samples were analyzed by radio-TLC, as above.
[6] = SK-BR-3 xenografts, 60 min post-injection
[7] = 15 min after intravenous injection, radio-TLC

Structure (SMILES): OC[C@H]1O[C@@H](O[C@H]2[C@H](O)[C@@H](O)[C@H](OCC[18F])O[C@@H]2CO)[C@H](O)[C@@H](O)[C@H]1O [^18F-FEL, 1'-^18F-fluoroethyl-β-D-lactose]
- radioactivity uptake in SK-BR-3 tumor ([1]; SK-BR-3 breast tumor-bearing mice with no HIP/PAP expression, PET): low
- uptake ratio of tumor-to-blood [1, 6]: 0.37 ± 0.01
- uptake ratio of tumor-to-liver [1, 6]: 0.54 ± 0.01
- uptake ratio of tumor-to-muscle [1, 6]: 1.37 ± 0.05
- accumulation in inflammatory tissue (T3M4 tumor-bearing mice; T3M4-inflammation mice, 60 min after injection, PET): non-accumulation in inflammatory tissue
- tumor uptake (PET ROI-derived) (T3M4 tumor-bearing mice; co-injection of β-D-lactose (15 mg/kg)): 2.36 ± 0.11 %ID/g
- tumor uptake (PET ROI-derived) (T3M4 tumor-bearing mice; no blocking): 10.7 ± 1.01 %ID/g
- reduction of specific tumor accumulation in PET competition assay (T3M4 tumor-bearing mice; co-injection of β-D-lactose): approximately 80%
- Biodistribution, Blood ([2]; 5 min after injection): 9.58 ± 0.51 %ID/g
- Biodistribution, Bone ([2]; 5 min after injection): 1.34 ± 0.23 %ID/g
- Biodistribution, Brain ([2]; 5 min after injection): 0.67 ± 0.23 %ID/g
- Biodistribution, Heart ([2]; 5 min after injection): 3.81 ± 0.62 %ID/g
- Biodistribution, Intestine ([2]; 5 min after injection): 2.57 ± 0.30 %ID/g
- Biodistribution, Kidney ([2]; 5 min after injection): 19.4 ± 4.76 %ID/g
- Biodistribution, Liver ([2]; 5 min after injection): 2.12 ± 0.21 %ID/g
- Biodistribution, Lung ([2]; 5 min after injection): 2.29 ± 0.35 %ID/g
- Biodistribution, Muscle ([2]; 5 min after injection): 2.50 ± 0.15 %ID/g
- Biodistribution, Pancreas ([2]; 5 min after injection): 2.90 ± 1.28 %ID/g
- Biodistribution, Spleen ([2]; 5 min after injection): 1.89 ± 0.62 %ID/g
- Biodistribution, Stomach ([2]; 5 min after injection): 3.60 ± 0.64 %ID/g
- Biodistribution, Tumor ([2]; 5 min after injection): 6.67 ± 0.42 %ID/g
- Biodistribution, Blood ([2]; 30 min after injection): 2.31 ± 0.67 %ID/g
- Biodistribution, Bone ([2]; 30 min after injection): 0.60 ± 0.26 %ID/g
- Biodistribution, Brain ([2]; 30 min after injection): 0.16 ± 0.04 %ID/g
- Biodistribution, Heart ([2]; 30 min after injection): 0.88 ± 0.25 %ID/g
- Biodistribution, Intestine ([2]; 30 min after injection): 0.94 ± 0.16 %ID/g
- Biodistribution, Kidney ([2]; 30 min after injection): 9.59 ± 1.80 %ID/g
- Biodistribution, Liver ([2]; 30 min after injection): 1.36 ± 0.07 %ID/g
- Biodistribution, Lung ([2]; 30 min after injection): 1.91 ± 0.42 %ID/g
- Biodistribution, Muscle ([2]; 30 min after injection): 0.91 ± 0.12 %ID/g
- Biodistribution, Pancreas ([2]; 30 min after injection): 0.69 ± 0.33 %ID/g
- Biodistribution, Spleen ([2]; 30 min after injection): 0.77 ± 0.19 %ID/g
- Biodistribution, Stomach ([2]; 30 min after injection): 1.03 ± 0.33 %ID/g
- Biodistribution, Tumor ([2]; 30 min after injection): 3.24 ± 0.11 %ID/g
- Biodistribution, Blood ([2]; 60 min after injection): 0.87 ± 0.31 %ID/g
- Biodistribution, Bone ([2]; 60 min after injection): 0.31 ± 0.02 %ID/g
- Biodistribution, Brain ([2]; 60 min after injection): 0.10 ± 0.02 %ID/g
- Biodistribution, Heart ([2]; 60 min after injection): 0.38 ± 0.10 %ID/g
- Biodistribution, Intestine ([2]; 60 min after injection): 0.56 ± 0.35 %ID/g
- Biodistribution, Kidney ([2]; 60 min after injection): 4.35 ± 1.53 %ID/g
- Biodistribution, Liver ([2]; 60 min after injection): 0.83 ± 0.23 %ID/g
- Biodistribution, Lung ([2]; 60 min after injection): 0.71 ± 0.37 %ID/g
- Biodistribution, Muscle ([2]; 60 min after injection): 0.77 ± 0.30 %ID/g
- Biodistribution, Pancreas ([2]; 60 min after injection): 0.63 ± 0.34 %ID/g
- Biodistribution, Spleen ([2]; 60 min after injection): 0.56 ± 0.30 %ID/g
- Biodistribution, Stomach ([2]; 60 min after injection): 0.82 ± 0.61 %ID/g
- Biodistribution, Tumor ([2]; 60 min after injection): 1.03 ± 0.09 %ID/g
- Biodistribution, Blood ([2]; 120 min after injection): 0.29 ± 0.12 %ID/g
- Biodistribution, Bone ([2]; 120 min after injection): 0.12 ± 0.02 %ID/g
- Biodistribution, Brain ([2]; 120 min after injection): 0.06 ± 0.03 %ID/g
- Biodistribution, Heart ([2]; 120 min after injection): 0.20 ± 0.04 %ID/g
- Biodistribution, Intestine ([2]; 120 min after injection): 0.20 ± 0.07 %ID/g
- Biodistribution, Kidney ([2]; 120 min after injection): 2.08 ± 0.74 %ID/g
- Biodistribution, Liver ([2]; 120 min after injection): 0.59 ± 0.09 %ID/g
- Biodistribution, Lung ([2]; 120 min after injection): 0.38 ± 0.11 %ID/g
- Biodistribution, Muscle ([2]; 120 min after injection): 0.15 ± 0.07 %ID/g
- Biodistribution, Pancreas ([2]; 120 min after injection): 0.29 ± 0.07 %ID/g
- Biodistribution, Spleen ([2]; 120 min after injection): 0.30 ± 0.17 %ID/g
- Biodistribution, Stomach ([2]; 120 min after injection): 0.24 ± 0.17 %ID/g
- Biodistribution, Tumor ([2]; 120 min after injection): 0.65 ± 0.12 %ID/g
- log P [3]: −2.62 ± 0.12
- intact ^18F-FEL in fetal bovine serum [4]: greater than 95%
- percentage of intact probe in plasma [5, 7]: no less than 94%
- percentage of intact probe in urine [5, 7]: no less than 94%
- dehalogenation in vivo ([5]; plasma and urine 15 min after intravenous injection, supported by low bone uptake): Almost no dehalogenation was detected
